Experimental findings from patent US20120035214A1, “RENIN INHIBITORS” (Merck Canada Inc., priority 2009, published 2012) are described below.

The target in assay [1] is T1, Human recombinant renin (Homo sapiens, UniProt P00797).
T1 construct: purchased Proteos
T1 sequence (P00797 67-406): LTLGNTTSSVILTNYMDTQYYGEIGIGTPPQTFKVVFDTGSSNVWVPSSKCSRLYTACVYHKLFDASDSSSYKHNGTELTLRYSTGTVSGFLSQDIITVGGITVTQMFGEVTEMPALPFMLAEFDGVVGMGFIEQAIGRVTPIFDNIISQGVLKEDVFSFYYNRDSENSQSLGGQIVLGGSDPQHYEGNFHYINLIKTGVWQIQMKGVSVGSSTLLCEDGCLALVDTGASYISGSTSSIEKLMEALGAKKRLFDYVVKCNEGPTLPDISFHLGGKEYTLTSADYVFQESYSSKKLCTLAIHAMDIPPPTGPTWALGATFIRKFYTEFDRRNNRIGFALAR
Description: Inhibition of human recombinant renin (QFRET, buffer). Type of assay: biochemical. Conditions: buffer: 50 mM MOPS pH 7.4, 100 mM NaCl, 0.002% Tween 20; 37° C., 3 hours. Here is the method:
Inhibition of Human Recombinant Renin
Human recombinant renin (Proteos) in 50 mM MOPS pH 7.4, 100 mM NaCl, 0.002% Tween 20 at a final concentration of […] is incubated with inhibitors from a 50 fold concentrated DMSO solution and 6 μM of an internally-quenched fluorescent peptide: DNP-[…]D,L-Amp (SEQ ID NO: 1); Paschalidou K. et al., Biochem J., 2004, 382, 1031). The reactions take place in a Costar 384 well black plate (#3573) at 37° C. for 3 hours. Fluorescence is measured at times 0 and 3 hours with a SpectraMax Gemini EM reader set at an excitation wavelength of 328 nm and at an emission wavelength of 388 nm. Background fluorescence at t=0 is subtracted from the measurement at t=3 hours. Inhibitory activity of the compounds is expressed as IC50.

The target in assay [2] is T2, recombinant renin in human plasma (Homo sapiens, UniProt P00797).
T2 construct: purchased Proteos
T2 sequence (P00797 67-406): T1 sequence (P00797 67-406)
Description: Inhibition of renin in human plasma (QFRET, plasma). The assay is classed as biochemical. As to conditions: human EDTA plasma with 1 nM recombinant renin added; 37° C., 1 hour. Here is the method:
Inhibition of Renin in Human Plasma
Human EDTA-collected plasma is rapidly thawed in warm water and centrifuged at 2900 g for 15 minutes at 4° C. The supernatant is collected and recombinant renin (Proteos) is added at a final concentration of 1 nM. The plasma is transferred to a Costar black 384 well plate (#3573). Renin inhibitors are added from a 17.5 fold concentrated DMSO solution and pre-incubated at 37° C. for 10 minutes. The internally-quench fluorescent peptide QXL520™-[…](5-FAM) (Anaspec), SEQ ID NO: 2, is diluted in 3M Tris pH 7.2, 200 mM EDTA and added to the plasma. The final concentrations are: 6 μM substrate, 342 mM Tris, 23 mM EDTA. The plate is incubated at 37° C. for 1 hour. The plate is read in a SpectraMax Gemini EM reader set at an excitation wavelength of 490 nm and an emission wavelength of 520 nm at times 0 and 1 hour. Background fluorescence at t=0 is subtracted from the measurement at t=1 hour. Inhibitory activity of the compounds is expressed as IC50.

By IC50 is commonly meant the concentration at which inhibition is half-maximal. `CCC(=O)NCCc1ccccc1-c1ccc([C@H]2CNCC[C@@H]2c2cc(F)cc(F)c2)c(C)c1` (racemic) [Structure 18]: the IC50 in assay [1] came to 0.65 nM; in assay [2], 1.3 nM.

For `COC[C@H](C)COCc1ccc([C@@]2(O)CCNC[C@@H]2c2ccc(-c3ccccc3CCNC(=O)CO)cc2C)cc1` [Structure 128], the values for the IC50 in assay [1] and in assay [2] were 0.07 nM and 0.57 nM, respectively.

With `COCCC[C@H](CNC(C)=O)c1ccccc1-c1onc([C@H]2CNCC[C@]2(O)c2ccc(F)c(F)c2)c1Br` [Structure 98], the values for the IC50 in assay [1] and in assay [2] were 0.58 nM and 2.2 nM, respectively.

As to `Cc1cccc(-c2noc([C@H]3CNCC[C@]3(O)c3ccc(F)c(F)c3)c2Br)c1C` [Structure 73], the IC50 in assay [1] came out at 0.47 nM; in assay [2], 21 nM.

With `CC(=O)NCCc1cccnc1-c1onc([C@H]2CNCC[C@]2(O)c2ccc(F)c(F)c2)c1Br` [Structure 97], the IC50 in assay [1] came to 10 nM; in assay [2] it was 89 nM.

For the compound `O[C@]1(c2ccc(F)c(F)c2)CCNC[C@@H]1c1cn(-c2ccc(F)cc2Br)nn1` [Structure 91], the values for the IC50 in assay [1] and in assay [2] were 2900 nM and 9470 nM, respectively.

Take `CC(=O)NCCc1ccccc1-c1ccc([C@H]2CNCC[C@@H]2c2ccn(C)c(=O)c2)c(Cl)c1` [Structure 59]: the IC50 was 2.1 nM in assay [1] and 3.4 nM in assay [2].

With `COC[C@H](C)COCc1ccc([C@@]2(O)CCNC[C@@H]2c2ccc(-c3ccccc3CCNC(C)=O)cc2C)nc1` [Structure 130], the IC50 in assay [1] amounted to 0.075 nM; in assay [2], 3.8 nM.

As to `CC(=O)NCCc1ccccc1-c1ccc([C@H]2CNCC[C@@H]2c2cccnc2)c(C)c1` (racemic) [Structure 3], the values for the IC50 in assay [1] and in assay [2] were 9.2 nM and 41 nM, respectively.

`CC(=O)NCCc1cc(F)ccc1-c1onc([C@H]2CNCC[C@]2(O)c2ccc(F)c(F)c2)c1Br` [Structure 86]: the IC50 in assay [1] amounted to 0.14 nM; in assay [2], 0.68 nM.

As for `CC(=O)NCCc1ccccc1-c1onc([C@H]2CNCC[C@@H]2c2ccc(OCCOc3c(Cl)cc(C)cc3Cl)cc2)c1C(C)O` (some centres unmarked) [Structure 109], the IC50 is 0.07 nM in assay [1] and 1.2 nM in assay [2].

As to `COC(=O)NCCc1ccccc1-c1onc([C@H]2CNCC[C@]2(O)c2ccc(F)c(F)c2)c1C(C)=O` [Structure 84], the values for the IC50 in assay [1] and in assay [2] were 10 nM and 93 nM, respectively.

Regarding `COC[C@H](C)COCc1ccc([C@@]2(O)CCNC[C@@H]2c2ccc(-c3ccccc3CCNC(N)=O)cc2C)cc1` [Structure 124], the IC50 stood at 0.63 nM in assay [1] and 3.6 nM in assay [2].

On to `COCCCc1ccc(-c2onc([C@H]3CNCC[C@]3(O)c3ccc(F)c(F)c3)c2Br)c(CCNC(C)=O)c1` [Structure 102], for which the IC50 turned out to be 0.27 nM in assay [1] and 1.1 nM in assay [2].

For the compound `COC[C@H](C)COCc1ccc([C@@]2(O)CCNC[C@@H]2c2noc(-c3ccccc3CCNC(C)=O)c2Br)cc1` [Structure 89], the IC50 was found to be 0.32 nM in assay [1] and 1.2 nM in assay [2].

Regarding `COCCCc1ccccc1-c1ccc([C@H]2CNCC[C@]2(OCC(O)CO)c2ccc(F)c(F)c2)c(C)c1` (mixture of isomers) [Structure 48], the IC50 came out at 16 nM in assay [1] and 2020 nM in assay [2].

As to `Cc1cc(-c2ccccc2CCNC(=O)C(F)(F)C(F)(F)F)ccc1[C@H]1CNCC[C@@H]1c1cc(F)cc(F)c1` (racemic) [Structure 32], the IC50 worked out at 23 nM in assay [1] and 75 nM in assay [2].

Take `Cc1ccccc1OCc1ccccc1-c1ccc([C@H]2CNCC[C@@H]2c2cc(F)cc(F)c2)c(C)c1` (racemic) [Structure 34]: the half-maximal inhibitory concentration (IC50) was 7.5 nM in assay [1] and 4980 nM in assay [2].

`COCCCc1ccccc1-c1ccc([C@H]2CNCC[C@@H]2c2cccnc2)c(C)c1` (racemic) [Structure 2]: the figures for the IC50 in assay [1] and in assay [2] were 18 nM and 310 nM, respectively.

As to `CC(=O)NCCc1c(F)cccc1-c1onc([C@H]2CNCC[C@]2(O)c2ccc(F)c(F)c2)c1Br` [Structure 87], the IC50 in assay [1] came to 0.16 nM; in assay [2] it was 0.62 nM.

As for `CC(=O)NCCc1ccccc1-c1ccc([C@H]2CNCC[C@@H]2c2cccnc2)c(C)c1` [Structure 4], the IC50 in assay [1] turned out to be 6.1 nM; in assay [2], 28 nM.

`COC[C@H](C)COCc1ccc([C@@]2(O)CCNC[C@@H]2c2ccc(-c3ccccc3CCNC(C)=O)cc2C)cc1` (racemic) [Structure 54]: the 50% inhibitory concentration (IC50) in assay [1] came to 0.13 nM; in assay [2], 1.2 nM.

Consider `COCC(=O)NCCc1ccccc1-c1ccc([C@H]2CNCC[C@@H]2c2ccn(C)c(=O)c2)c(Cl)c1` (racemic) [Structure 64], for which the IC50 in assay [1] stood at 110 nM; in assay [2], 77 nM.

Take `CC(=O)NCCc1ccccc1-c1onc([C@H]2CNCC[C@]2(O)c2ccc(C)c(F)c2)c1Br` [Structure 105]: the IC50 came out at 4.9 nM in assay [1] and 29 nM in assay [2].

For the compound `CC(=O)NCCc1ccc(C(F)(F)F)cc1-c1ccc([C@H]2CNCC[C@@H]2c2ccc(F)c(F)c2)c(Cl)c1` (racemic) [Structure 46], the results for the 50% inhibitory concentration (IC50) in assay [1] and in assay [2] were 0.78 nM and 280 nM, respectively.

Turning to `CC(=O)NCCc1ccccc1-c1ccc([C@H]2CNCC[C@@H]2c2cccnc2N)c(Cl)c1` (racemic) [Structure 45], the IC50 in assay [1] was 710 nM; in assay [2] it was 4580 nM.

Turning to `CCOCC(F)(F)COCc1ccc([C@@]2(O)CCNC[C@@H]2c2ccc(-c3ccccc3CCNC(C)=O)cc2C)cc1` [Structure 122], the IC50 in assay [1] turned out to be 0.09 nM; in assay [2], 0.43 nM.

For `O=C(CO)NCCc1ccccc1-c1onc([C@H]2CNCC[C@]2(O)c2ccc(F)c(F)c2)c1Br` [Structure 88], the IC50 amounted to 0.38 nM in assay [1] and 1 nM in assay [2].

Regarding `CC(=O)NCCc1ccccc1-c1ccc([C@@H]2CNCC[C@H]2c2cccnc2)c(Cl)c1` [Structure 14], the values for the IC50 in assay [1] and in assay [2] were 2630 nM and > 9500 nM, respectively.

Turning to `Cc1cc(-c2ccccc2CCNC(=O)c2ccccc2)ccc1[C@H]1CNCC[C@@H]1c1cc(F)cc(F)c1` (racemic) [Structure 22], the figures for the IC50 in assay [1] and in assay [2] were 20 nM and 1170 nM, respectively.

Regarding `CC(=O)NCCc1ccccc1-c1ccc([C@H]2CNCC[C@@H]2c2ccc(F)c(F)c2)cc1` (racemic) [Structure 44], the IC50 in assay [1] is 3.7 nM; in assay [2] it was 45 nM.

`COC(=O)NCCc1ccccc1-c1ccc([C@H]2CNCC[C@@H]2c2cc(F)cc(F)c2)c(C)c1` (racemic) [Structure 28]: the IC50 in assay [1] turned out to be 0.56 nM; in assay [2], 25 nM.

Turning to `Cc1cc(-c2ccccc2CCNC(=O)C(C)C)ccc1[C@H]1CNCC[C@@H]1c1cc(F)cc(F)c1` (racemic) [Structure 21], the IC50 in assay [1] turned out to be 14 nM; in assay [2], 1150 nM.

On to `CC(=O)NCCc1ccccc1-c1onc([C@H]2CNCC[C@]2(O)c2ccc(COCCOC(C)C)cc2)c1Br` [Structure 115], for which the IC50 in assay [1] was determined as 6.5 nM; in assay [2], 16 nM.

Turning to `CC(=O)NCCc1ccccc1-c1ccc([C@H]2CNCC[C@]2(O)c2ccc(COCCOC(C)C)cc2)c(C)c1` (racemic) [Structure 56], the half-maximal inhibitory concentration (IC50) in assay [1] amounted to 0.26 nM; in assay [2], 3.8 nM.

As for `Fc1ccc([C@H]2CCNC[C@@H]2c2nnc(-c3cccc(Cl)c3Cl)n2C2CC2)cc1F` [Structure 95], the figures for the half-inhibitory concentration (IC50) in assay [1] and in assay [2] were 0.15 nM and 0.65 nM, respectively.

As to `Cc1cc(-c2ccccc2CCNC(=O)CO)ccc1[C@H]1CNCC[C@@H]1c1cc(F)cc(F)c1` (racemic) [Structure 26], the IC50 is 1.5 nM in assay [1] and 30 nM in assay [2].

Turning to `CC(=O)NCc1ccccc1-c1ccc([C@H]2CNCC[C@@H]2c2ccc(F)c(F)c2)cc1` (racemic) [Structure 49], the values for the IC50 in assay [1] and in assay [2] were 1710 nM and 9040 nM, respectively.

As for `Cc1cc(-c2ccccc2CCCO)ccc1[C@H]1CNCC[C@@H]1c1cccc2nc[nH]c12` (racemic) [Structure 9], the IC50 in assay [1] was 998 nM; in assay [2] it was > 9500 nM.

In the case of `Cc1cc(-c2cccc3ccc(O)cc23)ccc1[C@H]1CNCC[C@@H]1c1cc(F)cc(F)c1` (racemic) [Structure 29], the IC50 in assay [1] was 93 nM; in assay [2] it was > 28000 nM.
